From patent publication US7361633B2, “Screening method and anti-tumor drug candidate obtained therefrom” (Ardana Bioscience Limited, priority 2002, dated 2008)
Entries after “also recorded” stand apart in the source; their conditions may differ.

What was measured:
BPH-1 cells = assay: Annexin V-FITC staining of extracellular phosphatidylserine (apoptosis) in BPH-1 cells; assay type: cell-based, human; conditions: 48 h
Protocol: All twelve panels depict either phase contrast (1, 4, 7, 10), confocal laser microscope (2, 5, 8, 11) or phase contrast/confocal merged images (3, 6, 9, 12). Panels 1 to 3 depict untreated control JEG-3 cells for cells in panels 4 to 6 which have been treated with GnRH I (100 nM) for 24 h. All cells have been exposed while live to an annexin V recombinant protein conjugated to the FITC fluorophore. The annexin V will bind specifically only to phosphatidlyserine (PS) lipids usually only expressed on the intracellular side of the plasma membrane lipid bilayer. An early sign of apoptosis is the translocation of these PS lipids from the intracellular side of the membrane to the outer aspect of the bilayer. […] The cellular levels of caspase 3 and procaspase 3 were assessed by specific immunoblotting of JEG-3 or BPH-1 whole cell (w-c) lysates from cells stimulated continuously with GnRH I for the times depicted. […]
Thus we have shown that upon continuous GnRH ligand stimulation of either JEG-3 or BPH-1 there is a retardation of cell growth, however we were interested as to whether there was any genuine induction of cellular apoptosis recently reported to occur in several tumour cell lines (Soon et al (2002) J. Clin. Endocrinol. Metab. 87, 4580-4586). […] Initially we measured the effects of GnRH stimulation upon the ultrastructural integrity of the cells plasma membrane. […]

[1] = target: T1, marmoset Type II GnRH receptor (Callithrix jacchus, UniProt Q95MG6); assay: Inositol phosphate accumulation in αT4-II cells; assay type: cell-based; conditions: GnRH II 10 nM
T1 construct: expressed in transfected cells
T1 sequence (Q95MG6 1-380): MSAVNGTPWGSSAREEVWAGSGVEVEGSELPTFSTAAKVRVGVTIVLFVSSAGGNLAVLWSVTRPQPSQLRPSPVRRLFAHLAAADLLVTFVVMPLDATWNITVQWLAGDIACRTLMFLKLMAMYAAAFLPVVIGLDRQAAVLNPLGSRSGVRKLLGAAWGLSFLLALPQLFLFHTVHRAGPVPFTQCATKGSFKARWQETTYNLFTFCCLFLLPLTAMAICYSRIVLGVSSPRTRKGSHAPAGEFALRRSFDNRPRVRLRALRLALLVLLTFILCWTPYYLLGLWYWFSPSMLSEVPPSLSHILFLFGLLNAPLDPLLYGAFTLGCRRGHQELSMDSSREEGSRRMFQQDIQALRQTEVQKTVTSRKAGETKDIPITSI
Protocol: The histograms in panels a and b represent inositol phosphate accumulation data from HEK293 cells stably expressing the Type I GnRH receptor only (SCL60). […] In panels c and d, the liberated inositol phosphates generated were measured in the proto-gonadotrope cells (αT4) stably expressing the marmoset Type II GnRH receptor (designated αT4-II).
The ability of the four major agents under study at activating ectopically expressed Type I or Type II GnRHR were tested (FIG. 12). The classical signal transduction cascade activated by GnRHR stimulation is the Gαq-PLC-β cascade. Both Type I and II receptor can stimulate the Gαq-PLC type-G-protein and activate PLC-β which cleaves phosphatidylinositol bisphosphate (PIP2) into inositol trisphosphate (IP3), other lower inositol phosphates (IPn) and diacylglycerol (DAG). The major function of IP3 is to elevate intracellular Ca^2+ while DAG causes the activation of specific PKC (protein kinase C) isoforms.
Panels a and b of FIG. 12 depict the generation of free cytoplasmic ^3H-myo-inositols on the plasma membranes of HEK293 cells expressing the Type I GnRHR and of αT4 gonadotropes expressing the marmoset Type II GnRHR. Prior to agonist stimulation the respective cells were incubated in inositol-free growth media supplemented with 1 μCi/ml ^3H-myoinositol for 48 h. G protein coupled receptor (GPCR)-induced activation of PLC-β results in the cleavage of PIP2 (incorporating tritium ^3H) into free lower inositol phosphates (IPns).

Gαi-type G protein = assay: Inhibition of forskolin-stimulated cAMP accumulation in JEG-3 cells; assay type: cell-based, human; conditions: for FSK-stimulated intracellular cAMP accumulation after ligand pre-exposure: 100 nM, pre-exposure 10, 30, 60 minutes; for effect of PTX on ligand-mediated inhibition of FSK-stimulated cAMP accumulation: 60 minute pre-exposure, PTX 200 ng/ml 16 h
From the text: In both BPH-1 and JEG-3 cells GnRH and Ant 135-25 can antagonize forskolin (FSK) stimulated intracellular cAMP accumulation. Panels a and b respectively depict the effects of FSK, GnRH I and Ant 135-25 upon intracellular levels of cAMP in BPH-1 and JEG-3 cells measured using a calorimetric Biomol cAMP assay kit. […] Each histogram in panels a to d depicts the mean±s.e. mean of three to four experimental replicates of the cAMP accumulation assay.
Thus we noted that when cyclic adenosine monophosphate levels (cAMP) were measured using a commercially available […] assay system (Biomol) the ability of forskolin (1 μM in JEG-3 and 3 μM in BPH-1, sufficient to give a 50% Rmax response in each case) was blunted with extended cellular pre-treatment times (10 to 60 minutes) with either 100 nM GnRH I or Ant 135-25 (FIG. 9, panel a-BPH, panel b-JEG). […] Therefore it appears that both ligands can efficiently activate the adenylate cyclase inhibitory activity of Gαi in both cell models tested.

Compound | agonistic activity: liberated inositol phosphates at marmoset Type II GnRH receptor [1] | FSK-stimulated intracellular cAMP accumulation after ligand pre-exposure (Gαi-type G protein) | effect of PTX on ligand-mediated inhibition of FSK-stimulated cAMP accumulation (Gαi-type G protein) | other results
C[S+]([O-])c1ccc(-c2nc(-c3ccncc3)c(-c3ccc(F)cc3)[nH]2)cc1 (stereo not drawn) [SB203580] | – | – | – | effect on GnRH I-induced annexin V-FITC staining (pro-apoptotic state) (BPH-1 cells; 1 μM SB203580 with GnRH I): prevented GnRH from inducing a pro-apoptotic state in the BPH-1 cells; also recorded: almost completely abrogated
Ac-D-Nal(2)-D-4-ClPhe-D-Pal-Ser-1-MePal-D-IsopropylLys-Leu-IsopropylLys-Pro-D-AlaNH2 [Ant 135-25] | do not cause any liberation of free inositol phosphates | significantly reduced; also recorded: blunted | can be specifically inhibited with a 16 h pre-incubation of the cells with 200 ng/ml of PTX; also recorded: attenuated by a 16 h pre-treatment with 200 ng/ml PTX | agonistic activity: liberated inositol phosphates at marmoset Type II GnRH receptor ([1]; listed as 135-25): no IPn-generating capacity; agonistic activity: liberated inositol phosphates at marmoset Type II GnRH receptor ([1]; listed as Ant135-25): no partial activity at all; also recorded: fails to show any agonistic activity at the Type II marmoset GnRHR; agonistic activity: liberated inositol phosphates at marmoset Type II GnRH receptor ([1]; listed as antagonist 135-25): failed to generate significant free inositol phosphate
Ac-D-Nal(2)-D-4-ClPhe-D-Pal-Ser-Ile-D-IsopropylLys-Leu-IsopropylLys-Pro-D -AlaNH2 [Ant 135-18] | considerable partial agonistic activity; also recorded: dose-dependent agonistic activity | – | – | agonistic activity: liberated inositol phosphates at marmoset Type II GnRH receptor ([1]; listed as 135-18): only the Type II receptor was activated by 135-18
GnRH I: Gonadotropin-Releasing Hormone, a decapeptide; the original form of GnRH, re-named GnRH I | – | significantly reduced; also recorded: blunted | can be specifically inhibited with a 16 h pre-incubation of the cells with 200 ng/ml of PTX; also recorded: attenuated by a 16 h pre-treatment with 200 ng/ml PTX | extracellular annexin-V-reactive phosphatidylserine (BPH-1 cells): Identical results; also recorded: significant induction of annexin-V-FITC reactivity on the outer plasma membrane envelope
